What was measured:
[1] = tested on: MEFs; experiment: Mitochondrial transmembrane potential (ΔΨm) by FACS using TMRE in MEFs; format: cell-based, mouse
Experimental: ROS generation was measured using oxidized, green-fluorescent dihydrocalcein acetoxymethylester (DHC-AM) (Life Technologies) and flow cytometry. Single-cell suspensions of MEFs were prepared and ROS was assessed with 5 μM DHC-AM staining in culture medium for 30 minutes (A. Rohnstock et al., (2007) Toxicol in Vitro 21, 1552-1562). 25 nM of cationic cell permeant dye tetramethylrhodamine ethylester (TMRE; Life Technologies) (R. C. Scaduto, Jr. et al., (1999), Biophysical journal 76, 469-477) were used to measure ΔΨm. Additionally, MitoSox Red and MitoTracker Deep Red (Life Technologies) were used to measure mitochondrial ROS and mitochondrial mass, respectively. Flow cytometry was carried out on an LSRII (BD Biosciences), and FlowJo software (Tree Star) was used for analysis.

[2] = tested on: MAVS; experiment: MAVS oligomerization in purified MEF mitochondria, with or without SLE patient-derived MAVS oligomers; parameters: species or system mouse
Experimental: MAVS antibody was covalently coupled to protein G magnetic beads (Life Technologies) using the bi-functional amine-reactive cross-linker disuccinimidyl suberate (DSS; Thermo Scientific). To avoid a sample contamination with proteins or protein complexes that nonspecifically bind to protein G, plasma samples were pre-incubated with protein G magnetic beads without the cross-linked MAVS antibody. SLE patient plasma were incubated for 6 hours, after which the magnetic beads were loaded onto a column in a magnetic field and extensively washed. After the beads were eluted, MAVS-oligomers were released from MAVS-antibody by way of increasing ionic strength buffer, lower pH and gel filtration. Functionally intact mitochondria from cultured cells were isolated as described earlier (S. Schmitt et al., (2013) Analytical biochemistry 443, 66-74). This method comprises a mechanical cell rupture, followed by a precipitation of mitochondria from cell lysates using magnetically labeled anti-TOM22 (Miltenyi Biotec) antibody. […] The reaction mixtures were centrifuged at 10,000×g for 10 min, and the precipitates then analyzed using SDD-AGE.

Row | Compound | mitochondrial hyperpolarization (ΔΨm) with MitoQ ([1]; MEF, GOx+/−MitoQ and SINV+/−MitoQ, TMRE (FIG. 3C)) | MAVS oligomerization induced by SLE plasma MAVS oligomers in isolated mitochondria ([2]; mitochondria pretreated with MitoQ (FIG. 6C, lane 4)) | ΔΨm induced by the substance ([1]; MAVS-WT MEFs, not observed in MAVS-KO (FIG. 1B, 2D)) | induction of MAVS oligomerization in purified mitochondria ([2]; GOx treatment, positive control (FIG. 6C, lane 2))
1 | COC1=C(OC)C(=O)C(CCCCCCCCCC[P+](c2ccccc2)(c2ccccc2)c2ccccc2)=C(C)C1=O.CS(=O)(=O)[O-] [MitoQ, [10-(4,5-Dimethoxy-2-methyl-3,6-dioxo-1,4-cyclohexadien-1-yl)decyl](triphenyl)phosphonium methanesulfonate] | decreased mitochondrial hyperpolarization | significantly decreased | – | –
2 | glucose oxidase [GOx] | – | – | increased ΔΨm | induced MAVS oligomerization
